One may read the EC50 as the concentration that produces a half-maximal response.

The nature of this experiment: NF-kB promoter reporter activators, neuronal cells, dose response, cell-based, SH-SY5Y, luciferase (AID 1241). Conditions: fold induction.
In the case of `CCC(=O)Oc1ccc(-c2cnc3ccccc3n2)cc1`, the EC50 is 21.2 µM.

With `COc1ccc(-c2csc(NCc3ccco3)n2)cc1`, the 50% effective concentration (EC50) is 3.7 µM.

Consider `Oc1ccc(-c2cn3cc(C(F)(F)F)ccc3n2)cc1`, for which the EC50 was 1.19 µM.

`Brc1ccccc1-c1nc(-c2ccccc2)no1`: the concentration giving a half-maximal response (EC50) is 2.08 µM.

As to `CCOc1ccc(NC(=O)c2ccco2)c([N+](=O)[O-])c1`, the EC50 was 18.9 µM.

`c1ccc2c(c1)nnn1c3ccccc3nc21`: the 50% effective concentration (EC50) was 0.346 µM.

Turning to `COc1ccc(-n2nc3cc(C)c(N)c(Br)c3n2)cc1`, the EC50 was 1.44 µM.

With `COc1ccc2cc(-c3cc(C(=O)O)c4ccccc4n3)ccc2c1`, the concentration for a half-maximal effect (EC50) is 1.14 µM.

With `Cc1c(C(=O)Nc2nc3ccccc3[nH]2)oc2ccccc12`, the EC50 was 1.38 µM.

Turning to `Cc1ccc(-c2nnc(-c3cccs3)o2)cc1`, the EC50 is 2.79 µM.

For the compound `Oc1ccc(-c2csc(Nc3ncccn3)n2)cc1`, the EC50 is 3.44 µM.

Consider `Cn1cccc1C(=O)C(=O)Nc1ccccc1`, for which the concentration giving a half-maximal response (EC50) was 25.1 µM.

Turning to `Cc1ccc(-c2cc(-c3ccccc3Cl)[nH]n2)c(O)c1`, the concentration for a half-maximal effect (EC50) is 7.15 µM.

`Clc1ccc(-c2nc3n(n2)Cc2ccccc2-3)cc1`: the EC50 was 0.343 µM.

As to `COC(=O)c1ccc(/C=C(\C#N)c2ccccn2)cc1`, the half-maximal effective concentration (EC50) was 25.1 µM.

`O=C(Nc1ccn(Cc2ccccc2)n1)c1cccc(F)c1`: the half-maximal effective concentration (EC50) is 15.1 µM.

`Cc1ccsc1C(=O)Nc1ccc2c(c1)OCCO2`: the EC50 is 3.08 µM.

Regarding `Cc1c(C(=O)N2CCc3ccccc32)oc2ccccc12`, the concentration giving a half-maximal response (EC50) is 3.37 µM.

On to `Cc1ccc(/C=C2\OC(=O)c3ccccc32)cc1`, for which the EC50 was 6.03 µM.

For the compound `COc1ccccc1Oc1ccc(N/C=C/C(=O)c2ccco2)cc1`, the concentration giving a half-maximal response (EC50) was 7.13 µM.

On to `CC(=O)c1c(C)[nH]c(C(=O)Nc2ccc3c(c2)OCCO3)c1C`, for which the EC50 was 5.26 µM.

In the case of `CCCCCCCOc1ccc(OC(=O)c2cccnc2)cc1`, the EC50 is 0.161 µM.

Consider `Cc1ccc(/C=C/c2nc3ccccc3[nH]2)o1`, for which the half-maximal effective concentration (EC50) was 2.06 µM.

On to `Nc1cccc(-c2cn3cc(C(F)(F)F)cc(Cl)c3n2)c1`, for which the EC50 is 0.682 µM.

For the compound `Cn1cccc1C(=O)C(=O)Nc1ccc(Cl)cc1`, the 50% effective concentration (EC50) is 25.2 µM.

Regarding `O=C(Nc1cccc(O)c1)c1noc2c1CCc1ccccc1-2`, the 50% effective concentration (EC50) was 0.426 µM.

Turning to `CC(C)CC(=O)Nc1ccc2nn(-c3ccccc3)nc2c1`, the concentration for a half-maximal effect (EC50) was 5.7 µM.

Take `Cc1ccc2nc3cc([N+](=O)[O-])cc([N+](=O)[O-])c3cc2c1`: the concentration for a half-maximal effect (EC50) was 1.19 µM.

Turning to `Cc1ccc(-c2nc3cc(N)ccc3o2)cc1`, the EC50 was 2.17 µM.

For `Cc1ccc(-c2cn3cccc(C)c3n2)cc1`, the EC50 is 2.3 µM.

As to `c1ccc2oc(-c3csc(N4CCOCC4)n3)cc2c1`, the EC50 was 0.966 µM.

For `Oc1ccc(-c2nnc(-c3ccc(O)cc3)nn2)cc1`, the EC50 was 5.89 µM.

`O=C(Nc1ccc(Cl)cc1)C1=Cc2ccccc2OC1`: the EC50 was 2.23 µM.

Take `O=C(NCc1cccnc1)c1ccc([N+](=O)[O-])o1`: the concentration giving a half-maximal response (EC50) is 2.81 µM.

Consider `CCc1ccc(NC(=O)c2cc(C)on2)cc1`, for which the EC50 is 2.86 µM.

For the compound `Clc1ccc(-c2nnc(-c3ccccc3Cl)o2)cc1`, the EC50 was 2.35 µM.

Regarding `Cc1ccc(/C=C(\C#N)c2nc3ccccc3[nH]2)s1`, the EC50 is 0.637 µM.

For `COC(=O)c1ccc(-c2nc3ccc(C)cc3o2)cc1`, the concentration for a half-maximal effect (EC50) was 3.3 µM.

Turning to `CCCCOC(=O)Nc1ccc(N2CCCCC2)cc1`, the EC50 was 20.5 µM.

Take `O=C(/C=C\Nc1cccc(F)c1)c1cccs1`: the EC50 was 0.347 µM.

For `O=C(Nc1nccs1)c1ccc(-c2ccc(Cl)cc2)o1`, the EC50 is 27.6 µM.

With `Cc1ccc2sc(-c3ccc(NC(=O)/C=C\C(=O)O)cc3)nc2c1`, the EC50 was 4.83 µM.

Consider `Cn1c(C(=O)Nc2ccc3c(c2)OCCO3)cc2sccc21`, for which the concentration giving a half-maximal response (EC50) was 1.17 µM.

`CCOC(=O)C1=C(C)n2c(s/c(=C/c3cccc([N+](=O)[O-])c3)c2=O)=NC1c1ccc(O)c(OC)c1` (stereo not given): the EC50 is 2.1 µM.

As for `O=C(Nc1nc2ccc(Cl)cc2s1)c1ccco1`, the concentration giving a half-maximal response (EC50) is 1.19 µM.

As to `Cc1nn(-c2ccccc2Cl)c(Cl)c1/C=N/Nc1cccc(C(=O)O)c1`, the EC50 is 4.37 µM.

Take `CN(C)c1ccc(NC(=O)Nc2cccc(Cl)c2)cc1`: the concentration for a half-maximal effect (EC50) was 3.42 µM.

On to `Cc1occc1C(=O)Nc1ccc2ccccc2c1`, for which the concentration for a half-maximal effect (EC50) was 3.7 µM.

Regarding `COc1ccc(C2=Nc3cc(C)ccc3OC2)cc1`, the EC50 was 1.95 µM.

In the case of `O=C(Nc1nc2ccccc2s1)c1ccc(F)cc1`, the EC50 is 1.2 µM.

As for `COc1cccc(NC(=O)C(=S)NC2CCCCC2)c1`, the EC50 is 4.22 µM.

Turning to `Cc1ccc(NC2=Nc3ccccc3CS2)cc1`, the EC50 was 1.34 µM.

Regarding `O=C(Nc1ncc(Cc2ccccc2)s1)c1cccs1`, the EC50 is 1.08 µM.

Consider `Fc1ccccc1-c1nc(-c2ccccc2)no1`, for which the EC50 was 4 µM.

With `Clc1ccccc1-c1nnc(-c2ccc3c(c2)OCO3)o1`, the EC50 was 1.41 µM.

With `Cc1ccc(-c2nc(-c3cccnc3)no2)cc1`, the EC50 was 1.32 µM.

Take `O=C1/C(=C/c2cccs2)CCc2ccccc21`: the 50% effective concentration (EC50) was 4.12 µM.

Consider `COC(=O)CSc1nc2cc3c(cc2cc1C#N)OCO3`, for which the EC50 is 0.997 µM.

Turning to `Nc1ccc(O)cc1C(=O)OCC(=O)c1ccc(C2CCCCC2)cc1`, the EC50 is 3.91 µM.

On to `Cc1ccc(NC(=O)c2noc3c2CCC3)cc1C`, for which the concentration for a half-maximal effect (EC50) is 3.12 µM.

Turning to `O=C(COc1ccc(CO)cc1Cl)Nc1ccc(F)cc1`, the EC50 is 1.6 µM.

As to `c1ccc(-c2noc(-c3cccc4ccccc34)n2)cc1`, the 50% effective concentration (EC50) is 15.6 µM.

For the compound `CC(=O)c1cccc(N/C=C\C(=O)c2ccc(C)cc2)c1`, the EC50 was 0.904 µM.

As to `CC(=O)Nc1ccc2nc(-c3ccccc3)cn2c1`, the EC50 is 2.7 µM.

Regarding `Fc1ccccc1N1CCN(c2cnc3ccccc3n2)CC1`, the EC50 was 3.33 µM.

On to `CCOc1ccc(-c2nc(-c3cccnc3)no2)cc1`, for which the half-maximal effective concentration (EC50) was 0.906 µM.

Regarding `Cc1ccc(-c2nnc(-c3ccccc3)o2)cc1`, the EC50 is 3.44 µM.

Turning to `CCOc1ccc2nc(N3CCCCCC3)sc2c1`, the EC50 is 3.69 µM.

As for `c1ccc(CCNc2ncnc3c2cnn3-c2ccccc2)cc1`, the half-maximal effective concentration (EC50) was 27.4 µM.

For `C(=N\Nc1ncnc2ccccc12)/c1ccccc1`, the 50% effective concentration (EC50) is 4.03 µM.

As to `CC(C)Oc1cc(O)c2c(=O)c(-c3ccc(O)cc3)coc2c1`, the EC50 was 4.52 µM.

Regarding `Cc1nn(-c2ccccc2)c(Cl)c1/C=N/Nc1ccc(Cl)c(C(=O)O)c1`, the EC50 is 11.3 µM.

In the case of `Cc1ccnc(NC(=O)CCCOc2cc(=O)n(C)c3ccccc23)c1`, the 50% effective concentration (EC50) was 10.5 µM.

As to `COc1cccc(N(C(=O)c2nc3nccc(C)n3n2)c2nc3ccccc3s2)c1`, the EC50 was 7.22 µM.

With `Oc1ccccc1/C=N/Nc1cccc2cccnc12`, the EC50 was 3.58 µM.

As to `O=C(Nc1ccccn1)c1ccc2ccccc2n1`, the EC50 is 17.2 µM.

Regarding `Cc1ccc(-c2nc(Nc3ccccc3)n[nH]2)cc1`, the EC50 was 2.29 µM.

Consider `O=C(Cc1ccccc1)Nc1nc2ccccc2s1`, for which the EC50 was 29.5 µM.

With `O=C(Nc1ccc2c(c1)CCC2)c1cccs1`, the EC50 was 6.51 µM.

Take `O=C(c1ccccc1)n1ccc(-c2cnc(-c3ccccc3)s2)n1`: the EC50 is 1.49 µM.

As for `CCOC(=O)c1c(N)sc(C(=O)Nc2ccccc2F)c1C`, the concentration for a half-maximal effect (EC50) is 1.92 µM.

Take `CCOC(=O)c1sc2nc(-c3cccnc3)ccc2c1N`: the EC50 was 1.35 µM.

As for `O=C1c2ccccc2NC(c2cnc3ccccc3n2)N1O` (stereo not given), the concentration for a half-maximal effect (EC50) was 0.903 µM.

In the case of `CCNC(=O)O/N=C(\C)c1sc(-c2ccc(Cl)cc2)nc1C`, the EC50 is 1.63 µM.

For the compound `Cc1ccccc1Nc1nc(N)nc(CSc2ccc(F)cc2)n1`, the EC50 was 6.45 µM.

`COc1ccc2nc(Nc3ccccc3OC)sc2c1`: the concentration for a half-maximal effect (EC50) is 2.24 µM.

Consider `Cc1ccc(O)c(NC(=O)c2noc3c2CCCCC3)c1`, for which the concentration giving a half-maximal response (EC50) is 9.29 µM.

For the compound `CCOc1ccc2nc(C(=O)N3CCCC(C)C3)sc2c1` (stereo not given), the EC50 is 3.3 µM.

As for `Oc1ccccc1-c1cc(-c2cccc(F)c2)n[nH]1`, the half-maximal effective concentration (EC50) was 7.73 µM.

On to `Cc1ccc(C(=O)C(C)OC(=O)c2ccccc2[N+](=O)[O-])cc1` (stereo not given), for which the EC50 is 9.08 µM.

In the case of `O=C(/C=C/Nc1ccccc1C(F)(F)F)c1ccco1`, the EC50 is 1.47 µM.

On to `COc1ccc(CN=C2Nc3ccccc3CS2)cc1`, for which the EC50 was 13.3 µM.

In the case of `CC1=NC(=O)C(N=Nc2cccc(C(=O)O)c2)N1c1ccccc1` (stereo not given), the EC50 was 0.781 µM.

`O=C(Nc1ccc2nsnc2c1)c1ccc2c(c1)OCO2`: the half-maximal effective concentration (EC50) was 1.85 µM.

With `CC(C)c1ccc(/C=C/c2ccc(=O)n(C)n2)cc1`, the 50% effective concentration (EC50) is 8.7 µM.

`Cc1nnc(SCc2cnc(-c3ccc(C(C)C)cc3)s2)n1C`: the concentration for a half-maximal effect (EC50) is 4.57 µM.

In the case of `O=C(O)c1ccc(N/N=C/c2cn(-c3ccccc3)nc2-c2cccs2)cc1`, the concentration for a half-maximal effect (EC50) was 1.7 µM.

Take `CC(=O)c1ccc(Nc2ccc(-c3ccccc3F)nn2)cc1`: the EC50 is 0.838 µM.

In the case of `CCCCOc1ccc(-c2csc(N)n2)cc1[N+](=O)[O-]`, the EC50 was 14.1 µM.

For `N#Cc1cccc(NCC(=O)Nc2ccc3c(c2)OCCO3)c1`, the half-maximal effective concentration (EC50) was 6.6 µM.

With `Cc1ccc(C(=O)Nc2ccc3c(c2)CCC3)cc1`, the concentration for a half-maximal effect (EC50) was 0.158 µM.

As for `Cc1ccc(Nc2nc3ccccc3s2)c(C)c1`, the EC50 was 0.874 µM.

For the compound `CN(C)C(=O)Oc1ccc(-c2cn3cc(Cl)ccc3n2)cc1`, the EC50 was 3.22 µM.

With `COc1cccc(-c2nc(-c3ccccc3)no2)c1`, the EC50 is 1.49 µM.

Regarding `Cc1ccn2cc(-c3cc4ccccc4oc3=O)nc2c1`, the EC50 was 0.137 µM.

`Nc1ccc(-c2nc3ccc(C(=O)O)cc3s2)cc1`: the EC50 was 0.146 µM.

For `CN=c1scc(-c2ccccc2F)n1/N=C(\C)c1cccnc1`, the concentration giving a half-maximal response (EC50) was 24.4 µM.

Regarding `CCCCNc1ncnc2c1cnn2-c1ccccc1`, the EC50 was 6.07 µM.

Regarding `CC(=O)Nc1cccc(-c2csc(Nc3ccccn3)n2)c1`, the EC50 was 2.67 µM.

For the compound `COc1ccc(-c2nnc(SCc3ccccc3F)o2)cc1`, the concentration for a half-maximal effect (EC50) is 3.89 µM.

In the case of `c1ccc(OCCSc2nnnn2-c2ccccc2)cc1`, the EC50 is 8.35 µM.

As to `Cc1cccn2cc(-c3ccc(F)cc3)nc12`, the 50% effective concentration (EC50) is 1.86 µM.

Consider `Cc1ccc(NC(=O)c2ccn(C)n2)c(Br)c1`, for which the concentration for a half-maximal effect (EC50) is 8.25 µM.

For the compound `c1ccc(CSCc2cn3ccsc3n2)cc1`, the EC50 was 12.6 µM.

As for `CS(=O)(=O)N1N=C(c2ccc(Br)cc2)CC1c1ccc2c(c1)OCO2` (stereo not given), the concentration giving a half-maximal response (EC50) was 2.68 µM.
